Reference: article PMC4775085 (ACS chemical neuroscience, 2015)
Values joined by “and” are separate entries in the source; they are usually repeats but may differ in a detail not shown here. Equal values may be shown once.

How the values were obtained:
HDAC11 = biological target: T1, HDAC11 (Homo sapiens, UniProt Q96DB2); assay: HDAC11 enzymatic inhibition assay
T1 sequence (Q96DB2 1-347): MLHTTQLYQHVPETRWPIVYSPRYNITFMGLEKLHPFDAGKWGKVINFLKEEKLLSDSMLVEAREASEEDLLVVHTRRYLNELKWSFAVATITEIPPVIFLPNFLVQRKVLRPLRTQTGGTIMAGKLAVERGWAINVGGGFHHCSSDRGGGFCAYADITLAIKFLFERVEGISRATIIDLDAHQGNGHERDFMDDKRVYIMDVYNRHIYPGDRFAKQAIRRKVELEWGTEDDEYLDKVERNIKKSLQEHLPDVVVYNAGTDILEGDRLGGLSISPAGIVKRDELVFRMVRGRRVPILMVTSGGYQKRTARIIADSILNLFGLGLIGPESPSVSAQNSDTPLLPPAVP

HDAC6 = biological target: T2, HDAC6 (Homo sapiens, UniProt Q9UBN7); assay: HDAC6 enzymatic inhibition assay; type: biochemical
T2 sequence (Q9UBN7 1-1215): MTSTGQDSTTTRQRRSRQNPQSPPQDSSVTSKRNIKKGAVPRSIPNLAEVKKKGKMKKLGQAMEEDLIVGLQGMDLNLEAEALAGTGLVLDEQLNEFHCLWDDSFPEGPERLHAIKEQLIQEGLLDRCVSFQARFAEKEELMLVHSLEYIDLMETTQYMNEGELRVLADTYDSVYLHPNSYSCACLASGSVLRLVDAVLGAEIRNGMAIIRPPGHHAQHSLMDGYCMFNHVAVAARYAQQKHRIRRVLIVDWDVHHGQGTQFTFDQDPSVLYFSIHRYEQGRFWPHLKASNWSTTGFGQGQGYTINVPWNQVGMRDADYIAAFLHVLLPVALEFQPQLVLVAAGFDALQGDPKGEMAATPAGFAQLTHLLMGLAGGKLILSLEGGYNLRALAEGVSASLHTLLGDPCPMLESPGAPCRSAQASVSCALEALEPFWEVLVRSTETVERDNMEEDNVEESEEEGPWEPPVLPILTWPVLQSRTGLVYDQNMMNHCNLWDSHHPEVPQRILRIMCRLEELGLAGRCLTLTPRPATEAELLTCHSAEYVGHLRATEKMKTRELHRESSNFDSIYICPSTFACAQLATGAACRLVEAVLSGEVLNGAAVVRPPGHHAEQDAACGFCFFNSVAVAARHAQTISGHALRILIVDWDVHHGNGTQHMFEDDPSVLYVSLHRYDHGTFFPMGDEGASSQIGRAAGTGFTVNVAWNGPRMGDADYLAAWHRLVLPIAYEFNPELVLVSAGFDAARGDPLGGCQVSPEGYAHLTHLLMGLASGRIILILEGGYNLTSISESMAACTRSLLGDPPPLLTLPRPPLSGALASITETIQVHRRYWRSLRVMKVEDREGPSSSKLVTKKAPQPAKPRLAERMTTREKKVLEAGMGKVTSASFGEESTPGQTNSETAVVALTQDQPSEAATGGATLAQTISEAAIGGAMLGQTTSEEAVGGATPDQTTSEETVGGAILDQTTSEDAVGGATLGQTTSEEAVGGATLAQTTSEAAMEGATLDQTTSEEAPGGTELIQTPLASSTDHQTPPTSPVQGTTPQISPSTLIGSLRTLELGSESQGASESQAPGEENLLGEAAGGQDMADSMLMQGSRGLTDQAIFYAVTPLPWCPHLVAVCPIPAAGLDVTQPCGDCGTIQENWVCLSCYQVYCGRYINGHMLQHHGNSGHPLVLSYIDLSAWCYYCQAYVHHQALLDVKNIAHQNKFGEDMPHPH

HDAC9 = HDAC9 (Homo sapiens, UniProt Q9UKV0); assay: HDAC9 enzymatic inhibition assay
HDAC9, sequence (Q9UKV0 whole entry): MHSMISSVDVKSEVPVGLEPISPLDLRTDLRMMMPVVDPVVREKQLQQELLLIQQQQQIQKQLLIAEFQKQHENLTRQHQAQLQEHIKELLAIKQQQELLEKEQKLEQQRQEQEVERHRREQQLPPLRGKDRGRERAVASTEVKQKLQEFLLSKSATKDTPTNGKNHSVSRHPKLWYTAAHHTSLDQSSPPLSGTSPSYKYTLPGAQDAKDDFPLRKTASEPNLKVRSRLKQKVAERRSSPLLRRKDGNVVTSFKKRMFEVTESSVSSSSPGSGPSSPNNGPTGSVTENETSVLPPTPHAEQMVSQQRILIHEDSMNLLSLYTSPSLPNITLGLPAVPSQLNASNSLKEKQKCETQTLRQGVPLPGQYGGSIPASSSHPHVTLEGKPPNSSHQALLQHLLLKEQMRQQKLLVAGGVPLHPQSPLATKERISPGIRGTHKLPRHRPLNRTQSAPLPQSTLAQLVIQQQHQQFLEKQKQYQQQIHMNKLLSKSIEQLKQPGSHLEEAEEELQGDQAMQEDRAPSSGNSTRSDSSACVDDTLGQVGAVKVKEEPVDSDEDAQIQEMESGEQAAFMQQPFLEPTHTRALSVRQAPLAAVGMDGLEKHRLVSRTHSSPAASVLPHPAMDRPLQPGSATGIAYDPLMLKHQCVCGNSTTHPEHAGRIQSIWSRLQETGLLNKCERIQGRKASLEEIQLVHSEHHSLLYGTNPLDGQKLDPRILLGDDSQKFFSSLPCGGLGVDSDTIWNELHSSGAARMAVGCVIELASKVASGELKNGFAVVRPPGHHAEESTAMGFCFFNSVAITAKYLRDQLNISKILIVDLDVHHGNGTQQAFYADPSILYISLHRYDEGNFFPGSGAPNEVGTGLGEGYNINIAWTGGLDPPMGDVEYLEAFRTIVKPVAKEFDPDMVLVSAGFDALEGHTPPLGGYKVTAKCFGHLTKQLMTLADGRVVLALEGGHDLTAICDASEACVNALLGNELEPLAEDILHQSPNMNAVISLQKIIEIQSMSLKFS

Cc1nc2ccc(F)cc2n1Cc1ccc(C(=O)NO)cc1 [30a, 4-[(6-Fluoro-2-methyl-1-benzimidazolyl)methyl]-N-hydroxybenzamide] was tested, and the IC50 (HDAC11) was 7490 nM, the IC50 (HDAC6; HDAC6 IC50, singlet 10-dose IC50 mode, 3-fold serial dilution starting at 1 μM) was 3.12 nM and the IC50 (HDAC6; IC50 (nM) HDAC6, mean of two experiments ± standard deviation, 10-point enzymatic assay starting from 30 μM, 3-fold serial dilution) was 5 nM and 5.2 nM. The “Selectivity HDAC1/HDAC6” value (HDAC6; ratio of HDAC1 and HDAC6 IC50 of Table 1 (fold)) was 562 and the IC50 (HDAC9) was 463 nM.
